The results in this text go back to patent US12390467B2, “Necroptosis inducers or autophagy inhibitors or a combination thereof” (The University of Toledo, priority 2018, dated 2025).

Assay type in all cases: cell-based
The subject of one experiment is TNBC cell lines. Put plainly: Cytotoxicity screening (MTT), TNBC cell lines overall. The settings on record: classification of Table 1 cytotoxicity data. From the text: To this end, several commercial databases were searched, and 17 similar molecules from the VitasM database were retrieved with considerable structural diversity in terms of the substitution on the aryl ring A attached to the thienopyrimidine scaffold and aryl ring B attached to hydrazino moiety. Further, the biological evaluation of the 17 molecules sheds light on the structural features deemed important for the selective cytotoxicity shown by this class of molecules. With this understanding, the 17 molecules were subjected to a screening protocol comprising of two TNBC, two non-TNBC, and one normal cell lines.
(§1) The following cancer and non-cancer cell lines were used in the initial cytotoxicity screening of the TPH104 compounds: triple negative breast cancer (TNBC): MDA-MB468, MDA-MB 231, and BT-20; non-TNBC: MCF-7 and ZR-75-1; ovarian: Ov2008; prostate: DU145; colon: HCT-116, S1, and LOVO; lung: H460; normal kidney: HEK-293; normal breast: HMEC; and normal colon: CRL-1459. All cells were cultured in Dulbecco's modified Eagle medium (DMEM), supplemented with 10% fetal bovine serum (FBS), and 1% penicillin/streptomycin (P/S). Cells were allowed to grow as adherent monolayers in T25 flasks in a humidified incubator with 5% CO2 at 37° C. for a period of 24 h, unless otherwise specified for certain experiments.
(§2) The MTT assay was used to determine the cytotoxicity of all of the compounds. Briefly, in a 96-well flat-bottom cell culture plate, the cells were seeded at a density between 3-5×10^3 cells/well (180 μl in each well) and incubated for 24 h (a hemocytometer was used for cell counting). The next day, the cells were incubated with different concentrations of the nine compounds (0, 0.1, 0.3, 1, 3, 10, 30, and 100 μM) for 72 h. After 72 h, 20 μl of 5 mg/ml of 3-(4,5-dimethylthiazol-2-yl)-2,5-diphenyltetrazolium bromide (MTT) was added to the plate and incubated with the cells for 3 h at 37° C. In this experiment, the living cells will reduce the soluble MTT dye to non-soluble purple formazan crystals. Following incubation, the media containing MTT removed via suction and 100 μL of 100% dimethyl sulfoxide (DMSO) was added to dissolve the formazan crystals. Subsequently, the plate was shaken for 2 minutes and the absorbance was measured at a wavelength of 570 nm using a SpectraMax iD3 Multi-Mode Microplate Reader (Molecular Devices, Sunnyvale, CA). The IC50 values of each compound were calculated and used to determine the selectivity ratio (IC50 in normal cells/IC50 in cancer cells) of each compound as previously described. Based on the results obtained from these experiments, the compound TPH104, which had the lowest IC50 value, was selected for further experiments.

The subject of experiment [1] is MDA-MB468 (TNBC cell line). Put plainly: MTT cell viability assay, MDA-MB468. Particulars: Homo sapiens, MDA-MB-468, 72 h, read-out: IC50 ± SD, MDA-MB468. As for the experimental part: as §1, §2
Background: Tetrazolium dyes change colour on reduction, which living cells bring about.

Experiment [2] has as its system MDA-MB231 (TNBC cell line). As to the kind of experiment: MTT cell viability assay, MDA-MB231. Particulars: Homo sapiens, MDA-MB-231, 72 h, read-out: IC50 ± SD, MDA-MB231. As for the experimental part: as §1, §2
Experiment [3] has as its system ZR-75-1 (non-TNBC cell line). As to the kind of experiment: MTT cell viability assay, ZR-75-1. The settings on record: Homo sapiens, ZR-75-1, 72 h, read-out: IC50 ± SD, ZR-75-1. The procedure: as §1, §2
The test system of experiment [4] is MCF-7 (non-TNBC cell line). Put plainly: MTT cell viability assay, MCF-7. The settings on record: Homo sapiens, MCF7, 72 h, read-out: IC50 ± SD, MCF-7. As for the experimental part: as §1, §2
Experiment [5] concerns normal human mammary epithelial cells (HMEC). As to the kind of experiment: MTT cell viability assay, HMEC. Particulars: Homo sapiens, HMEC; MTT, 72 h; Normal; read-out: IC50 ± SD, HMEC. The procedure: as §1, §2
For experiment [6], the system named is RIP, p-RIP, MLKL, caspase 8 in MDA-MB468 cells. As to the kind of experiment: Western blot, necroptotic proteins, MDA-MB468. The settings on record: 100 μM. The procedure: The TNBC cells were seeded in a culture flask and incubated for 24 h. The cells were then incubated with different concentrations of the lead compounds and re-incubated for an additional 12 or 24 h. […] The bicinchoninic acid (BCA) was used to determine protein concentration in the cell extracts (G-BIOSCIENCES, St. Louis, MO, USA). […] The membrane was blocked using 5% milk in Tris-buffered Tween 20 saline for 30 minutes. The membrane was then incubated overnight with primary antibodies against Bak, Bax, Bcl-2, caspase9, caspase 3, caspase 7, PARP, cytochrome c, N-cadherin, E-cadherin, c-Myc, dishevelled segment polarity protein 3 (DVL3), dishevelled segment polarity protein 2 (DVL2), Vimentin, mitogen-activated protein kinase kinase (MAPKK also known as MEK1/2), β-catenin, low-density lipoprotein receptor-related protein 6 (LRP6), receptor-interacting protein kinase (RIP), phosphorylated RIP (p-RIP), mixed lineage kinase domain like pseudokinase(MLKL), Caspase 8, light chain 3 (LC3), lysosomal-associated membrane protein 1 (LAMP1), unc-51 like autophagy activating kinase 1 (ULK1), ras associated protein 7 (Rab7), ras associated protein 5 (Rab5), Beclin 1, mechanistic target of rapamycin (mTOR), tumor necrosis factor alpha (TNF-α), tumor necrosis factor receptor 1 (TNFR1), tumor necrosis factor receptor 2 (TNFR2), Fas-associated protein with death domain (FADD), Fas ligand (Fas), TNF-related apoptosis-inducing ligand (TRAIL), death receptor 5 (DR5), Tumor necrosis factor receptor type 1-associated DEATH domain (TRADD), receptor-interacting protein kinase 3 (RIP3), β-actin or GAPDH in 1:1000 dilution in 5% milk or 5% BSA at 4° C. Horseradish peroxidase-labeled (HRP) anti-rabbit or anti-mouse secondary antibodies (1:5,000 dilution) were added and incubated the next day for an additional 1 h. A ChemiDoc™ MP System imaging system from Bio-Rad (Hercules, CA, USA) was used for blots reading. Blots were used to obtain the protein bands, followed by quantification of the bands using image J software (NIH, Bethesda, MD, USA). All of the data were expressed as the ratio of β-actin or GAPDH.
(Immunoblotting shows a protein as a band on a membrane.)

A value given as a limit tells only on which side of the number the result lay.

For orientation: IC50 means the concentration needed to halve the response being measured. In the case of `COc1cccc(/C=N/Nc2ncnc3scc(-c4ccccc4)c23)c1OC` [TPH104h], the “potency compared to TPH104” value in the experiment with TNBC cell lines is on record as “poor or no potency”. Besides, the concentration for half-maximal inhibition (IC50) was over 100 µM in experiment [1]; 96.7 ± 0.14 µM in experiment [2]; over 100 µM in experiment [3]; 63 ± 2.89 µM in experiment [4]; over 100 µM in experiment [5].

Consider `COc1cc(OC)c(OC)cc1/C=N/Nc1ncnc2scc(-c3ccc(Cl)cc3)c12` [TPH104p], for which the “potency compared to TPH104” value in the experiment with TNBC cell lines was “poor or no potency”. Also, the IC50 in experiment [1] was 55.9 ± 0.98 µM; in experiment [2] it was 62.2 ± 8.83 µM; in experiment [3], 23 ± 0.59 µM; in experiment [4] it was over 100 µM; in experiment [5], over 100 µM.

Turning to `Cc1ccc(-c2csc3ncnc(N/N=C/c4ccc(C)cc4O)c23)cc1` [TPH104o], in the experiment with TNBC cell lines, the “potency compared to TPH104” value was “moderate potency compared to TPH104”. Moreover, the IC50 in experiment [1] was 0.56 ± 0.24 µM; in experiment [2], 0.43 ± 0.19 µM; in experiment [3], 1.04 ± 0.54 µM; in experiment [4] it was 1.22 ± 0.6 µM; in experiment [5], over 100 µM.

In the case of `COc1cc(/C=N/Nc2ncnc3scc(-c4ccccc4)c23)ccc1O` [TPH104q], the “potency compared to TPH104” value with TNBC cell lines was “poor or no potency”. In addition, the IC50 in experiment [1] is 22.2 ± 0.78 µM; in experiment [2], 18.6 ± 2.57 µM; in experiment [3], 21.4 ± 3.11 µM; in experiment [4] it was 23.5 ± 1.12 µM; in experiment [5] it was over 100 µM.

As for “necrostatin-1 [nec-1, reference compound]”, the “expression of RIP, p-RIP, MLKL, and caspase 8” value in experiment [6] is on record as “significantly downregulated”.

As to `COc1cccc(/C=N/Nc2ncnc3scc(-c4ccccc4)c23)c1O` [TPH104c], the “potency compared to TPH104” value in the experiment with TNBC cell lines is “equipotent to TPH104”. The IC50 in experiment [1] was 0.18 ± 0.02 µM; in experiment [2] it was 0.23 ± 0.01 µM; in experiment [3], 10.7 ± 1.1 µM; in experiment [4], over 100 µM; in experiment [5], over 100 µM.

For `COc1ccc(/C=N/Nc2ncnc3scc(-c4ccc(C)cc4)c23)c(OC)c1OC` [TPH104g], the “potency compared to TPH104” value in the experiment on TNBC cell lines is recorded as “poor or no potency”. In addition, the IC50 was 27.3 ± 4.53 µM in experiment [1]; 27.64 ± 0.15 µM in experiment [2]; 28.9 ± 2.61 µM in experiment [3]; 27.2 ± 2.92 µM in experiment [4]; over 100 µM in experiment [5].

Take `CCOc1cc(/C=N/Nc2ncnc3scc(-c4ccccc4)c23)ccc1O` [TPH104n]: the “potency compared to TPH104” value in the experiment on TNBC cell lines is on record as “poor or no potency”. Moreover, the IC50 in experiment [1] was 21.7 ± 0.3 µM; in experiment [2], 23.1 ± 1.88 µM; in experiment [3] it was 21.5 ± 3.67 µM; in experiment [4] it was over 100 µM; in experiment [5], over 100 µM.

For the compound `Oc1ccccc1/C=N/Nc1ncnc2scc(-c3ccccc3)c12` [TPH104j], the “potency compared to TPH104” value in the experiment with TNBC cell lines is reported as “moderate potency compared to TPH104”. The IC50 in experiment [1] worked out at 0.56 ± 0.34 µM; in experiment [2], 0.78 ± 0.28 µM; in experiment [3], 3.42 ± 1.53 µM; in experiment [4], 2.84 ± 0.96 µM; in experiment [5], 4.52 ± 1.38 µM.

In the case of `Oc1ccc(/C=N/Nc2ncnc3scc(-c4ccccc4)c23)c(O)c1` [TPH104l], in the experiment with TNBC cell lines, the “potency compared to TPH104” value is recorded as “moderate potency compared to TPH104”. The IC50 is 1.47 ± 0.84 µM in experiment [1]; 0.78 ± 0.38 µM in experiment [2]; 8.68 ± 1.04 µM in experiment [3]; 6.59 ± 0.58 µM in experiment [4]; over 100 µM in experiment [5].

Consider `COc1ccc(/C=N/Nc2ncnc3scc(-c4ccccc4)c23)c(OC)c1` [TPH104i], for which, in the experiment on TNBC cell lines, the “potency compared to TPH104” value is “poor or no potency”. For the same compound, the IC50 in experiment [1], in experiment [2], in experiment [3], in experiment [4] and in experiment [5] was over 100 µM each time.

As for `Oc1ccccc1/C=N/Nc1ncnc2scc(-c3ccc(Cl)cc3)c12` [TPH104a], the “potency compared to TPH104” value in the experiment on TNBC cell lines is recorded as “comparable potency to that of TPH104”. Further, the IC50 in experiment [1] worked out at 0.44 ± 0.26 µM; in experiment [2] it was 0.28 ± 0.06 µM; in experiment [3], 2.29 ± 0.23 µM; in experiment [4] it was 6.96 ± 1.15 µM; in experiment [5], 27.9 ± 8.95 µM.

On to `Oc1c(/C=N/Nc2ncnc3scc(-c4ccccc4)c23)cc2c3c1CCCN3CCC2` [TPH104b], for which the “potency compared to TPH104” value in the experiment on TNBC cell lines is given as “equipotent to TPH104”. The IC50 in experiment [1] was 0.23 ± 0.05 µM; in experiment [2], 0.25 ± 0.02 µM; in experiment [3] it was 1.18 ± 0.53 µM; in experiment [4], 1.52 ± 0.57 µM; in experiment [5], over 100 µM.

Turning to `Cc1ccc(-c2csc3ncnc(N/N=C/c4ccccc4O)c23)cc1` [TPH104d], the “potency compared to TPH104” value in the experiment on TNBC cell lines is given as “moderate potency compared to TPH104”. The IC50 in experiment [1] is 2.22 ± 1.82 µM; in experiment [2], 2.29 ± 0.16 µM; in experiment [3], 6.05 ± 2.02 µM; in experiment [4] it was over 100 µM; in experiment [5] it was 33.1 ± 2.33 µM.

For the compound `COc1ccccc1/C=N/Nc1ncnc2scc(-c3ccccc3)c12` [TPH104f], the “potency compared to TPH104” value in the experiment with TNBC cell lines is listed as “poor or no potency”. The IC50 was 7.87 ± 1.53 µM in experiment [1]; 29.38 ± 0.08 µM in experiment [2]; over 100 µM in experiment [3]; over 100 µM in experiment [4]; over 100 µM in experiment [5].

Consider `COc1cc(OC)c(OC)cc1/C=N/Nc1ncnc2scc(-c3ccccc3)c12` [TPH104e], for which the “potency compared to TPH104” value in the experiment with TNBC cell lines is recorded as “poor or no potency”. Moreover, the IC50 in experiment [1], in experiment [2], in experiment [3], in experiment [4] and in experiment [5] was over 100 µM in each case.

As for `Oc1cc(Br)ccc1/C=N/Nc1ncnc2scc(-c3ccccc3)c12` [TPH104k], the “potency compared to TPH104” value in the experiment on TNBC cell lines is “moderate potency compared to TPH104”. Besides, the IC50 was 0.91 ± 0.09 µM in experiment [1]; 1.29 ± 0.52 µM in experiment [2]; 6.07 ± 5.18 µM in experiment [3]; 15.6 ± 6.5 µM in experiment [4]; over 100 µM in experiment [5].
